Measurements published in patent US20030181727A1, “Cyanine dyes” (Kabushiki Kaisha Hayashibara Seibutsu Kagaku Kenky, priority 1999, published 2003).

What was measured:
[1] = Light-resistance test: residual percentage of dye in thin layer on glass after 25 min exposure to 500 W xenon lamp; assay type: physicochemical; settings: 7 cm, from transmittance at absorption maximum; for Residual percentage of monomethine cyanine dye, With no light-resistant improver: control thin layer without improver; for Residual percentage of monomethine cyanine dye, With light-resistant improver: thin layer with formazan nickel complex of Chemical Formula 49 (15 mg dye + 2 mg improver in 3 ml TFP)
Method: Fifteen milligrams of either of the monomethine cyanine dyes in Table 2 was added to three milliliters of TFP, and as a light-resistant improver two milligrams of the formazan nickel complex represented by Chemical Formula 49 disclosed in Japanese Patent Application No. 163,036/99, titled “Formazan metal complexes” applied for by the same applicant as the present invention, and the contents were dissolved in the solvent with a 5-minute ultrasonic energization at ambient temperature. Thereafter, in a usual manner, a prescribed volume of the resulting solution was dropped on either surface of a polished glass substrate, 5 cm×5 cm, while the glass substrate was rotated at a rotation rate of 1,000 rpm for one minute to uniformly coat the solution thereupon, and sequentially blown with hot air and cold air to dry the coated solution. [drawing 10]
The resulting glass substrates coated with the monomethine cyanine dyes were measured for transmittance (T0) at the wavelengths of their absorption maxima, and then fixed to a position 7 cm apart from a 500 W xenon lamp and exposed with the light for 25 min while cold air was blowing to the substrates. Immediately after that, the resulting substrates were remeasured for transmittance (T) at the wavelengths of the absorption maxima of the monomethine cyanine dyes, and the transmittances of T and T0 for each monomethine cyanine dye were substituted for the Equation 1 to calculate the residual percentage (%) of each monomethine cyanine dye. In parallel, control systems with no light-resistant improver for each monomethine cyanine dye were provided and treated similarly as above. [formula]
As shown in the results in Table 2, in the systems with no light-resistant improver, up to 74% of the monomethine cyanine dye had changed with only a 25-min exposure of light to become incapable of exerting its inherent optical properties. However, in the systems with the formazan metal complex represented by Chemical Formula 49, all of the monomethine cyanine dyes still remained intact up to a level of over 93% without changing even after the exposure of light.

[2] = Visible absorption spectra of monomethine cyanine dyes in methanol solution and as thin layer on glass substrates; assay type: physicochemical; settings: for Wavelength of absorption maximum, Solution: dissolved in methanol; for Wavelength of absorption maximum, Thin layer: thin layer formed on glass substrate
Method: The monomethine cyanine dyes in Table 1 were measured for their visible absorption spectra when dissolved in methanol and formed on glass substrates, respectively. The results are tabulated in Table 1, and the visible absorption spectrum of the monomethine cyanine dye represented by Chemical Formula 17 when in a liquid form and in a thin-layer form are shown in FIG. 1.
As evident from the results in Table 1 and FIG. 1, the monomethine cyanine dyes tested had absorption maxima in relatively short wavelength visible regions, particularly, at wavelengths of 450 nm or less both in the forms of solution and thin layer. Most of these monomethine cyanine dyes had absorption maxima at wavelengths of 350-400 nm when in solution and thin layer forms, and the ends of their absorption maxima in their longer wavelength regions extended up to about 450 nm when in a thin layer form. The fact evidences that the light absorbents, comprising the monomethine cyanine dyes of the present invention, have sensitivity to a relatively short-wavelength visible light, and most of the light absorbents substantially absorb laser beams with wavelengths of 450 nm or less in their longer wavelength regions with their absorption maxima.

| Residual percentage of monomethine cyanine dye, With no light-resistant improver [1] [%] | Residual percentage of monomethine cyanine dye, With light-resistant improver [1] [%] | Wavelength of absorption maximum, Solution [2] [nm] | Wavelength of absorption maximum, Thin layer [2] [nm] | SMILES |
| --- | --- | --- | --- | --- |
| 26.0 | 93.2 | 396 | 440 | CN1C(=CC2=[N+](C)c3ccccc3C2(C)C)Oc2ccccc21.[I-] [Chemical Formula 36] |
| 80.6 | 100.0 | 379 | 375 | CC[n+]1c(C)csc1C=C1OC=C(C)N1C.[I-] [Chemical Formula 17] |
| 98.7 | 100.0 | 380 | 371 | CC[n+]1c(C=C2Oc3ccc(-c4ccccc4)cc3N2C)oc2ccccc21.[I-] [Chemical Formula 6] |
